# Measurements reported in patent US4264590A, “Antibacterial peptide” (Abbott Laboratories, priority 1980, dated 1981).
# What was measured:
# [1] = test system: E. coli (305-101); test: mouse protection test, CD50 (Table III); type: in vivo
# Method: (§1) Charles River mice, weighing approximately 20 g. each, are infected intraperitoneally with 10-100 times the LD of the infecting organism. At predetermined intervals post-infection, e.g., 1 and 5 hours, mice are dosed subcutaneously with graded doses of the halogenated peptide, antibiotic and combination thereof. The number of mice surviving each treatment for 7 days post-infection is observed and the CD50 is calculated. The fractional inhibitory concentration (F.I.C.) for each combination is calculated in the usual manner.
# (§2) In this table, the following infecting microorganisms were used:
# (§3) The infecting organisms are listed by the above code; the compounds are listed by their Example number. In all instances, the dipeptide and D-cycloserine were tested at a ratio of 10:1. The CD50 combination column lists only the amount of peptide present; the D-cycloserine amount is 10% of the listed amount.
# [2] = test system: E. coli 6880; test: two-fold agar dilution assay, M.I.C.; type: cell-based; settings: for MIC: Escherichia coli, substance alone, agar dilution, read-out: minimum inhibitory concentration (M.I.C.)
# Excerpt: (§4) In a two-fold agar dilution assay with E. coli (Juhl) and E. coli 6880 as test organisms, compounds of Examples 1 and 2 show a minimum inhibitory concentration (M.I.C.) of >800 ppm. […] The combination of the new peptide with D-cycloserine produces the following M.I.C. test results.
# [3] = test system: E. coli (Juhl); test: two-fold agar dilution assay, M.I.C.; type: cell-based; settings: for MIC: Escherichia coli, substance alone, agar dilution, read-out: minimum inhibitory concentration (M.I.C.)
# Excerpt: as §4
# [4] = test system: Strep. pyrogenes (C 203); test: mouse protection test, CD50 (Table III); type: in vivo
# Method: as §1, §2
# Strep. pyrogenes (C 203).
# as §3
# [5] = test system: S. aureus (Smith); test: mouse protection test, CD50 (Table III); type: in vivo; settings: for F.I.C. Index / CD50 (mg/kg) Combination: S. aureus (Smith) in mice, dipeptide:D-cycloserine 10:1; for CD50 (mg/kg) Combination: amount of peptide only listed, D-cycloserine is 10% of it; for CD50 (mg/kg) Peptide: mice infected i.p. with S. aureus (Smith), dosed subcutaneously, 7 days survival, peptide alone
# Method: as §1, §2, §3
# [6] = test system: E. coli (Juhl); test: serial dilution in synthetic medium in test tubes, MIC and F.I.C. index (Table II); type: cell-based; settings: for MIC: Escherichia coli
# Method: The halogenated peptides alone, the antibiotic alone or mixtures of the halogenated peptides and selected antibiotics are prepared in sterile concentrated aqueous solutions at the desired ratios. Serial dilutions are made to give a range of concentrations of the test substances. Samples of the dilutions are mixed with an appropriate sterile synthetic medium in test tubes. The tubes are then inoculated with an appropriate test organism and incubated at 35°-37° C. for 16-20 hours. Minimum inhibitory concentrations, i.e., that concentration which inhibits visible growth, are read and the fractional inhibitory concentration indices (F.I.C.) are calculated. In all instances, E. coli (Juhl) was used as the infecting microorganism.
# [7] = peptide:D-cycloserine ratio 1:1
# [8] = peptide:D-cycloserine ratio 1:8
# [9] = peptide:D-cycloserine ratio 8:1
# [10] = combination with D-cycloserine, ratio Pep/Antib. 1:1, read-out: MIC ppm Pep/Antib., peptide part
# [11] = combination with D-cycloserine, ratio Pep/Antib. 1:8, read-out: MIC ppm Pep/Antib., peptide part
# [12] = peptide alone, E. coli (Juhl), 35-37° C., 16-20 hours, read-out: MIC ppm Peptide
# [13] = combination with D-cycloserine, ratio Pep/Antib. 1:1
# [14] = combination with D-cycloserine, ratio Pep/Antib. 1:8
# [15] = combination with D-cycloserine, ratio Pep/Antib. 8:1
# [16] = combination with cephalothin, ratio Pep/Antib. 1:1
smiles,measurement,setting,value
"N[C@@H]1CON=C1O [D-cycloserine, reference compound]",CD50 (mg/kg) Cycloserine,"[1]; mice infected i.p. with E. coli (305-101), dosed subcutaneously, 7 days survival, D-cycloserine alone",63 mg/kg
same,MIC,[2],6.2 µg/mL
same,MIC,[3],12.5 µg/mL
same,CD50 (mg/kg) Cycloserine,"[4]; mice infected i.p. with Strep. pyrogenes (C 203), dosed subcutaneously, 7 days survival, D-cycloserine alone",> 100 mg/kg
"Br.C[C@H](N)C(=O)N[C@H](CF)C(=O)O [Example 1, L-alanyl-β-fluoro-D-alanine hydrobromide]",F.I.C. Index,"[1]; E. coli (305-101) in mice, dipeptide:D-cycloserine 10:1",0.90
same,CD50 (mg/kg) Combination,"[1]; E. coli (305-101) in mice, dipeptide:D-cycloserine 10:1, amount of peptide only listed, D-cycloserine is 10% of it",25 mg/kg
same,CD50 (mg/kg) Peptide,"[1]; mice infected i.p. with E. coli (305-101), dosed subcutaneously, 7 days survival, peptide alone",26 mg/kg
same,F.I.C. Index,[5],< 0.37
same,CD50 (mg/kg) Combination,[5],< 3.1 mg/kg
same,CD50 (mg/kg) Peptide,[5],9.2 mg/kg
same,MIC,[2],> 800 µg/mL
same,"M.I.C. of combination, D-cycloserine part",[2]; [7],0.1 ppm
same,"M.I.C. of combination, peptide part",[2]; [7],0.1 ppm
same,"M.I.C. of combination, D-cycloserine part",[2]; [8],0.78 ppm
same,"M.I.C. of combination, peptide part",[2]; [8],0.1 ppm
same,"M.I.C. of combination, D-cycloserine part",[2]; [9],0.05 ppm
same,"M.I.C. of combination, peptide part",[2]; [9],0.39 ppm
same,MIC,[3],> 800 µg/mL
same,"M.I.C. of combination, D-cycloserine part",[3]; [7],0.2 ppm
same,"M.I.C. of combination, peptide part",[3]; [7],0.2 ppm
same,"M.I.C. of combination, D-cycloserine part",[3]; [8],1.56 ppm
same,"M.I.C. of combination, peptide part",[3]; [8],0.2 ppm
same,"M.I.C. of combination, D-cycloserine part",[3]; [9],0.05 ppm
same,"M.I.C. of combination, peptide part",[3]; [9],0.39 ppm
same,MIC,[6]; [10],0.2 µg/mL
same,MIC,[6]; [11],0.2 µg/mL
same,MIC,"[6]; combination with D-cycloserine, ratio Pep/Antib. 8:1, read-out: MIC ppm Pep/Antib., peptide part",0.39 µg/mL
same,MIC,[6]; [12],> 800 µg/mL
same,F.I.C. Index,[6]; [13],0.02
same,"MIC ppm Pep/Antib., antibiotic part",[6]; [13],0.2 ppm
same,F.I.C. Index,[6]; [14],0.12
same,"MIC ppm Pep/Antib., antibiotic part",[6]; [14],1.56 ppm
same,F.I.C. Index,[6]; [15],0.004
same,"MIC ppm Pep/Antib., antibiotic part",[6]; [15],0.05 ppm
same,F.I.C. Index,"[4]; Strep. pyrogenes (C 203) in mice, dipeptide:D-cycloserine 10:1",0.60
same,CD50 (mg/kg) Combination,"[4]; Strep. pyrogenes (C 203) in mice, dipeptide:D-cycloserine 10:1, amount of peptide only listed, D-cycloserine is 10% of it",10.9 mg/kg
same,CD50 (mg/kg) Peptide,"[4]; mice infected i.p. with Strep. pyrogenes (C 203), dosed subcutaneously, 7 days survival, peptide alone",17.8 mg/kg
"C[C@H](N)C(=O)N[C@H](CCl)C(=O)O [Example 2, L-alanyl-β-chloro-D-alanine]",F.I.C. Index,[5],0.34
same,CD50 (mg/kg) Combination,[5],35 mg/kg
same,CD50 (mg/kg) Peptide,[5],170 mg/kg
same,MIC,[2],> 800 µg/mL
same,"M.I.C. of combination, D-cycloserine part",[2]; [7],0.78 ppm
same,"M.I.C. of combination, peptide part",[2]; [7],0.78 ppm
same,"M.I.C. of combination, D-cycloserine part",[2]; [8],0.78 ppm
same,"M.I.C. of combination, peptide part",[2]; [8],0.1 ppm
same,"M.I.C. of combination, D-cycloserine part",[2]; [9],0.39 ppm
same,"M.I.C. of combination, peptide part",[2]; [9],3.1 ppm
same,MIC,[3],> 800 µg/mL
same,"M.I.C. of combination, D-cycloserine part",[3]; [7],0.78 ppm
same,"M.I.C. of combination, peptide part",[3]; [7],0.78 ppm
same,"M.I.C. of combination, D-cycloserine part",[3]; [8],1.56 ppm
same,"M.I.C. of combination, peptide part",[3]; [8],0.2 ppm
same,"M.I.C. of combination, D-cycloserine part",[3]; [9],0.78 ppm
same,"M.I.C. of combination, peptide part",[3]; [9],0.62 ppm
same,MIC,[6]; [10],0.78 µg/mL
same,MIC,[6]; [11],0.2 µg/mL
same,MIC,"[6]; combination with cephalothin, ratio Pep/Antib. 1:1, read-out: MIC ppm Pep/Antib., peptide part",3.1 µg/mL
same,MIC,[6]; [12],> 800 µg/mL
same,F.I.C. Index,[6]; [13],0.06
same,"MIC ppm Pep/Antib., antibiotic part",[6]; [13],0.78 ppm
same,F.I.C. Index,[6]; [14],0.12
same,"MIC ppm Pep/Antib., antibiotic part",[6]; [14],1.56 ppm
same,F.I.C. Index,[6]; [16],0.50
same,"MIC ppm Pep/Antib., antibiotic part",[6]; [16],3.1 ppm
"CC(C)[C@H](N)C(=O)N[C@H](CF)C(=O)O [Example 3, L-Val-βF-D-Ala]",F.I.C. Index,[5],0.15
same,CD50 (mg/kg) Combination,[5],1.0 mg/kg
same,CD50 (mg/kg) Peptide,[5],10 mg/kg
